Reference: paper PMC8954508, “α-Glucosidase and Bacterial β-Glucuronidase Inhibitors from the Stems of Schisandra sphaerandra Staph” (Pharmaceuticals, 2022)
Where two headings read alike, the source gives them in different places.

Assays:
Assay type in all cases: biochemical
[1] = target: T1, bacterial β-glucuronidase (BGUS) (Escherichia coli, UniProt P05804); test: BGUS (β-glucuronidase) inhibitory assay; settings: in vitro; for IC50: means ± SD
Method: (§1) The AGS [23, 24, 25, 26] and BGUS [27] inhibitory activities were evaluated by the methods reported in the literature, respectively.

α-Glucosidase (AGS) [2] = target: T2, α-Glucosidase (AGS) (Saccharomyces cerevisiae, UniProt P53341); test: AGS (α-glucosidase) inhibitory assay
T2 sequence (P53341 whole entry): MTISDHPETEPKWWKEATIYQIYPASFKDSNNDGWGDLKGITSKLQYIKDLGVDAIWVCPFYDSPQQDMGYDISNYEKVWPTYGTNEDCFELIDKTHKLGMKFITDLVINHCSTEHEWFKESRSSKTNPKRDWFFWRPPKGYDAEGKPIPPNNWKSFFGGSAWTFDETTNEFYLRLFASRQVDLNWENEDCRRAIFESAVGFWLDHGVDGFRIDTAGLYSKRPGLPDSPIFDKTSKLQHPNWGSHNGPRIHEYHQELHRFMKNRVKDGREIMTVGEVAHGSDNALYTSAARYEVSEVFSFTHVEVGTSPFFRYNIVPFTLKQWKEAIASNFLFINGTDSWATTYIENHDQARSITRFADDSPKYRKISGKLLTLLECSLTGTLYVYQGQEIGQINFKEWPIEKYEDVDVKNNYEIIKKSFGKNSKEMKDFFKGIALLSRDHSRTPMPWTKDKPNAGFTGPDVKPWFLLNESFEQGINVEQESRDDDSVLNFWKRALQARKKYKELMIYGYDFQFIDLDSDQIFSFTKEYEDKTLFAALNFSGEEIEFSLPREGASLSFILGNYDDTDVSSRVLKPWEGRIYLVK
Method: as §1

α-Glucosidase (AGS) [3] = target: T2, α-Glucosidase (AGS); test: Inhibition kinetics against AGS (Lineweaver–Burk plots); settings: for mode of inhibition against AGS: Lineweaver–Burk plots; for Ki: AGS, secondary plot of slope versus [I], read-out: Ki (inhibition constant of the enzyme)
Method: (§2) The mode of inhibition for the active compounds was determined by the Lineweaver–Burk plot fitted by GraphPad Prism 8.0 software. The Km value and the Vmax value were obtained from the slope and Y-axis intercept of the Lineweaver–Burk plot based on the following equation:(1) Vmax=1/Y−intercept (2) Km=slope× Vmax
(§3) The Ki and Ki’ values were available by secondary plotting of the slope and Y-intercept on the Lineweaver–Burk plot versus the inhibitor [I] through the following equations:(3) Slope=Km/Vmax+Km[I]/VmaxKi (4) Y−intercept=1/Vmax+[I]/VmaxKi′

[4] = target: T1, bacterial β-glucuronidase (BGUS); test: Inhibition kinetics against BGUS (Lineweaver–Burk plots)
Method: as §2, §3

[5] = in vitro, means ± SD, read-out: IC50 α-Glucosidase

T1 sequence (P05804 whole entry): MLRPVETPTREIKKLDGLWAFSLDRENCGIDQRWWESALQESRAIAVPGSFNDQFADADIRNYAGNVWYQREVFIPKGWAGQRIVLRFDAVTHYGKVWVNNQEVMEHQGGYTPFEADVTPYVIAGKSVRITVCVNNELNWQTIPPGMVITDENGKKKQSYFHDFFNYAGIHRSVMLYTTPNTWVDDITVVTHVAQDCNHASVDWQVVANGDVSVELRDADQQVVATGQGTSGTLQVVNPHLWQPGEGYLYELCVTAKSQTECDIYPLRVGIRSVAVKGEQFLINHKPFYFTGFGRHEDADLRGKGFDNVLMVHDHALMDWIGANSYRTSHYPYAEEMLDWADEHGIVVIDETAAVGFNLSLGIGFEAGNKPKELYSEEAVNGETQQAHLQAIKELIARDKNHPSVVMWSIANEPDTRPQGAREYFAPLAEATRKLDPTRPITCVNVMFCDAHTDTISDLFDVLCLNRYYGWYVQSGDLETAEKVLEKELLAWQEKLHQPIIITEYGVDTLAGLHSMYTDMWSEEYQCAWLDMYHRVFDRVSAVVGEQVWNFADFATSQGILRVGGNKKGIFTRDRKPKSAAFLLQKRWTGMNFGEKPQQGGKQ

Compound | IC50 [1] [µM] | IC50 (α-Glucosidase (AGS) [2]; [5]) [µM] | mode of inhibition against AGS (α-Glucosidase (AGS) [3]) | BGUS inhibitory activity (in words) [1] | Ki (α-Glucosidase (AGS) [3]) [µM] | mode of inhibition against BGUS [4] | IC50 (α-Glucosidase (AGS) [2]) [µM]
O=C(O)[C@@H](O)[C@H]1OC(=O)[C@H](O)[C@H]1O [DSL, D-Saccharic 1,4-lactone, reference compound] | 56.9 ± 1.57 | – | – | – | – | – | –
C=C(C)[C@@H]1CC[C@@H]2[C@]3(CC[C@]4(C)C(=O)CC[C@@]24C)C[C@]13CCC(=O)OC [Compound 5, schiglausin L] | – | 42.9 ± 1.04 | could not be well defined | – | – | – | –
C=C(C)[C@@H]1CC[C@@H]2[C@]3(CC[C@]4(C)[C@@H]([C@H](C)CC/C=C(/C)C(=O)O)CC[C@@]24C)C[C@]13CCC(=O)OC [Compound 4, 3,4-seco-(24Z)-cycloart-4(28),24-diene-3,26-dioic-3-methyl ester] | 155 ± 4.68 | 14.1 ± 0.29 | competitive inhibitors | weak activity | 7.97 | – | –
CC1=CCC(C(C)C2CCC3(C)C4CCC5C(C)(C)OC(=O)C=CC56CC46CCC23C)OC1=O (stereo not shown) [Compound 3, schisanlactone B] | 14.7 ± 0.1 | 29.5 ± 0.7 | mixed-type inhibitors | – | 10.5 | mixed-type inhibitor | –
CC(=O)OC1CC2=C(CCC3C(=C2)C=CC(=O)OC3(C)C)C2(C)CCC(C(C)C3CC=C(C)C(=O)O3)C12C (stereo not shown) [Compound 1, Sphaerandralide A] | – | – | mixed-type inhibitors | – | 35.8 | – | 61.5 ± 1.75
